# Source: ChEMBL document CHEMBL1131439, “Prediction of binding affinities for TIBO inhibitors of HIV-1 reverse transcriptase using Monte Carlo simulations in a linear response method” (J Med Chem, 1998)
# Target: Human immunodeficiency virus type 1 reverse transcriptase (Human immunodeficiency virus 1, UniProt Q72547)
# Test: Inhibition of HIV-1 reverse transcriptase.
row,IC50,Structure (SMILES)
1,3160 nM,CC(C)=CCN1Cc2cccc3nc(O)n(c23)C[C@@H]1C
2,1140 nM,CC(C)=CCN1Cc2c(C#N)ccc3[nH]c(=O)n(c23)C[C@@H]1C
3,34 nM,CC(C)=CCN1Cc2cc(Cl)cc3[nH]c(=S)n(c23)C[C@@H]1C
4,437 nM,C#Cc1ccc2[nH]c(=O)n3c2c1CN(CC=C(C)C)[C@@H](C)C3
5,33.9 nM,COc1ccc2[nH]c(=S)n3c2c1CN(CC=C(C)C)[C@@H](C)C3
6,44 nM,CC(C)=CCN1Cc2cccc3[nH]c(=S)n(c23)C[C@@H]1C
7,5.8 nM,CC(C)=CCN1Cc2c(F)ccc3[nH]c(=S)n(c23)C[C@@H]1C
8,989 nM,CC(C)=CCN1Cc2c(C)ccc3[nH]c(=O)n(c23)C[C@@H]1C
9,56.3 nM,CC(C)=CCN1Cc2c(C#N)ccc3[nH]c(=S)n(c23)C[C@@H]1C
10,29.5 nM,C#Cc1ccc2[nH]c(=S)n3c2c1CN(CC=C(C)C)[C@@H](C)C3
11,13.6 nM,CC(C)=CCN1Cc2c(C)ccc3[nH]c(=S)n(c23)C[C@@H]1C

row,Structure (SMILES),IC50
1,CC(C)=CCN1Cc2c(Cl)ccc3[nH]c(=S)n(c23)C[C@@H]1C [TIVIRAPINE],4.3 nM
